Measurements reported in patent US6531148B1, “Therapeutic agents” (Takara Shuzo Co., Ltd., priority 1998, dated 2003).
Like-named read-outs stand apart in the source and are kept apart here.

What was measured:
[1] = test system: 70-kDa heat shock protein; assay: Heat shock protein induction test; format: cell-based; parameters: key to Induction of heat shock protein: − means that no induction was observed; + represents the induction level. Increased number of + means increased induction; + +: + represents the induction level. Increased number of + means increased induction; + + +: + represents the induction level. Increased number of + means increased induction; + + + +: + represents the induction level. Increased number of + means increased induction; conditions: HL-60 cells; for activity of inducing heat shock protein: 70-kDa heat shock protein; for Induction of heat shock protein: 6 hours
Experimental: 5 ml of RPMI 1640 medium containing 10% fetal bovine serum and HL-60 cells at a concentration of 2×10^5 cells/ml was placed in each well of a 6-well plate. The plate was incubated at 37° C. for 24 hours in the presence of 5% CO2. DGE at a final concentration of 0, 6.25, 12.5, 25, 50 or 100 μM was then added thereto. The incubation was continued for additional 6 hours.
After cultivation, the cell number was counted.
The cells were harvested by centrifugation, washed with PBS to prepare DGE-treated cells. Cells that were cultured in the same manner after heated at 45° C. for 10 minutes were also prepared.
These treated cells were used for SDS-PAGE according to the method as described in Molecular Cloning [Cold Spring Harbor Laboratory Press (1989)]. The treated cells were suspended in SDS-PAGE Sample buffer at a concentration of 2.5×10^6 cells/ml. The cell suspensions were treated at 100° C. for 10 minutes. 5 μl each of the cell suspensions was applied to two SDS-PAGE gels (5% stacking gel, 10% separation gel) and electrophoresed. One of the gels was subjected to Coomassie staining. The other gel was blotted onto a polyvinylidene difluoride transfer membrane [Immobilon™, Millipore, Cat. # IPVH000-10]. The membrane was blocked at 4° C. overnight using Block Ace (Dainippon Pharmaceutical, Cat. # UK-B25).
The blocked membrane was reacted with a monoclonal antibody HSP72/73(Ab-1) (Oncogene Research Products, Cat. # HSP01), which specifically reacts with heat-inducible 70-kDa heat shock protein. The membrane was washed with TBS containing 0.05% Tween 20 followed by TBS. The membrane was then reacted with a peroxidase-conjugated secondary antibody HRT-rabbit anti-mouse IgG (H+L) (Zymed Laboratories, Inc., Cat. # 61-6520), and then washed as described above. The membrane reacted with the primary and secondary antibodies was reacted with a chemiluminol reagent, Renaissance™ (Dupont NEN, Cat. # NEL-100). The membrane was then exposed to an X-ray film to confirm the induction of 70-kDa heat shock protein.

[2] = test system: DSEK cells; assay: Antirheumatic activity test (DSEK cell growth, WST-1); format: cell-based, human; conditions: for antirheumatic activity (growth inhibition of rheumatoid cells) / IC50: DSEK cells; for IC50: Homo sapiens, read-out: concentration that results in the inhibition of the growth of half-cells (IC50)
Experimental: DSEK cell is a fibroblast cell line established from a synovial membrane of a human patient with chronic rheumatism and is held at Department of Second Internal Medicine, Integrated Medical Center, Saitama Collage of Medicine as an in vitro rheumatoid model. DSEK cells were cultured in Iscov-MEM medium (IMDM: Gibco-BRL) containing 10% FBS (Bio Whittaker) at 37° C. in the presence of 5% CO2 to confluence. The cells were suspended in the same medium at a concentration of 3×10^4 cells/ml using a trypsin-EDTA solution (Bio Whittaker). 200 μl of the suspension was dispensed into each well of a 96-well microtiter plate (Falcon). After culturing for 5 to 7 days at which time the cells grew to 80% confluence, the medium was changed to 200 μl of the above-mentioned medium containing DGE at a 25, 50, 75, 100, 200 or 400 μM.
After incubating for 24 or 72 hours, 10 μl of Premix WST-1 (Takara Shuzo, MK400) was added to the well. The mixture was reacted at 37° C. for 3.5 hours. The degree of cell growth was expressed by a value obtained by subtracting the absorbance at 650 nm (A650) from the absorbance at 450 nm (A450).

[3] = test system: Mouse melanoma cell B16BL6; assay: Melanogenesis inhibition test; format: cell-based; conditions: B16BL6, absorbance at 400 nm
Experimental: Mouse melanoma cell B16BL6 suspended in RPMI 1640 medium containing 10% fetal bovine serum was dispensed into a 6-well plate at 5×10^4 cells/well/2 ml medium and the plate was incubated at 37° C. On the 2nd day, 100 μl of a DGE solution (2 mg/ml to 0.2 mg/ml) was added thereto. On the 7th day, the medium was exchanged and, at the same time, 100 μl of the DGE solution (2 mg/ml to 0.2 mg/ml) was added thereto. On the 8th day, the cells were harvested. After DNA, RNA and protein were digested, the absorbance at 400 nm was measured to determine an activity of inhibiting melanogenesis.
Briefly, after removing the medium by aspiration, 0.3 ml of 0.25% trypsin dissolved in 20 mM EDTA solution was added to each well and the plate was incubated at 37° C. for 10 minutes. 2 ml of fresh medium was then added to the well and the cells were suspended. The suspension was transferred to a tube. After the medium was removed by centrifugation, the cells were suspended in 2 ml of PBS and centrifuged again. After the supernatant was removed, 30 μl of 50 mM sodium acetate buffer (pH 5.0) containing 5 mM manganese chloride and 1 μl of 70,000 U/ml DNase I (Takara Shuzo) were added to the cells. The mixture was mixed thoroughly and then incubated at 37° C. for 2 hours to digest DNA. 1 μl of 10 mg/ml ribonuclease A (Sigma) was then added to the mixture and the resultant mixture was incubated at 50° C. for 1 hour to digest RNA. Finally, 100 mM Tris-hydrochloride buffer (pH 7.8) containing 100 μg/ml proteinase K (Sigma), 0.1% Triton X and 10 mM EDTA was added thereto to make the total volume to 200 μl for 2×10^6 cells. After the mixture was incubated at 37° C. for 16 hours, the absorbance at 400 nm was measured.

[4] = test system: Salmonella typhimulium TA1535/pSK1002; format: cell-based
Experimental: An antimutagenic activity was determined according to a method for detecting an environmental mutagen by the umu test, which can determine mutagenicity with reference to the β-galactosidase activity (Mutation Research, 147: 219 (1985)). Briefly, 25 μl of mutagen [mitomycin C (a DNA crosslinker) at 10 μg/ml or 4-nitroquinoline-1-oxide (NQO, a DNA methylating agent) at 7 μg/ml] was added to 50 μl of DGE solution at a varying concentration (1.0, 5.0, 10 or 15 mM). A culture of Salmonella typhimulium TA1535/pSK1002 in TGA medium at OD600 of 0.12 was added to the mixture to make the final volume to 1.5 ml. The mixture was then incubated at 37° C. for 2 hours with shaking. 200 μl of the culture was used to measure the β-galactosidase activity according to the method of Miller [Experiments in molecular genetics, pp. 352 (1972)].

## 5-L-glutathion-S-yl-2-hydroxy-3,7-dioxabicyclo[2.2.2]octan-1-ol [DGE-GSH]
[1]
  activity of inducing heat shock protein: also exhibited similar activities of inducing heat shock protein
[2]
  antirheumatic activity (growth inhibition of rheumatoid cells): also exhibited similar activities
[3]
  activity of inhibiting melanogenesis: also exhibited similar activities
[4]
  antimutagenic activity: also exhibited similar activities

## O=C1C=CC(CO)OC1O [DGE, L-glycero-1,5-epoxy-1αβ,6-dihydroxy-cis-hex-3-en-2-one]
[1]
  activity of inducing heat shock protein: the induction of 70-kDa heat shock protein by DGE was observed
[1]; 6.25 μM DGE
  Induction of heat shock protein: +
[1]; 12.5 μM DGE
  Induction of heat shock protein: +
[1]; 25.0 μM DGE
  Induction of heat shock protein: + +
[1]; 50.0 μM DGE
  Induction of heat shock protein: + + +
[1]; 100 μM DGE
  Induction of heat shock protein: + + + +
[2]; DGE 25 μM, culture period 24 hours, 0 μM 3.98
  Degree of cell growth (A450-650): 3.86
[2]; DGE 25 μM, culture period 72 hours, 0 μM 3.94
  Degree of cell growth (A450-650): 3.33
[2]; DGE 50 μM, culture period 24 hours, 0 μM 3.98
  Degree of cell growth (A450-650): 3.24
[2]; DGE 50 μM, culture period 72 hours, 0 μM 3.94
  Degree of cell growth (A450-650): 3.25
[2]; DGE 100 μM, culture period 24 hours, 0 μM 3.98
  Degree of cell growth (A450-650): 2.88
[2]; DGE 100 μM, culture period 72 hours, 0 μM 3.94
  Degree of cell growth (A450-650): 2.05
[2]; DGE 200 μM, culture period 24 hours, 0 μM 3.98
  Degree of cell growth (A450-650): 1.26
[2]; DGE 200 μM, culture period 72 hours, 0 μM 3.94
  Degree of cell growth (A450-650): 0.48
[2]; DGE 400 μM, culture period 24 hours, 0 μM 3.98
  Degree of cell growth (A450-650): 0.71
[2]; DGE 400 μM, culture period 72 hours, 0 μM 3.94
  Degree of cell growth (A450-650): 0.35
[2]
  antirheumatic activity (growth inhibition of rheumatoid cells): the growth of the rheumatoid cells was strongly inhibited
[2]; at 24 hours
  IC50: 207 µM
[2]; at 72 hours
  IC50: 112 µM
[3]
  activity of inhibiting melanogenesis: an activity of inhibiting melanogenesis was observed
[4]; against NQO, DGE final concentration 0.5 mM
  antimutagenic activity: 36%
[4]; against mitomycin C, DGE final concentration 0.5 mM
  antimutagenic activity: 37%
[4]; mutagen Mitomycin C, DGE final concentration 0.03 mM, without DGE 611
  β-Galactosidase activity: 590
[4]; mutagen Mitomycin C, DGE final concentration 0.17 mM, without DGE 611
  β-Galactosidase activity: 570
[4]; mutagen Mitomycin C, DGE final concentration 0.33 mM, without DGE 611
  β-Galactosidase activity: 451
[4]; mutagen Mitomycin C, DGE final concentration 0.5 mM, without DGE 611
  β-Galactosidase activity: 383
[4]; mutagen NQO, DGE final concentration 0.03 mM, without DGE 1437
  β-Galactosidase activity: 1376
[4]; mutagen NQO, DGE final concentration 0.17 mM, without DGE 1437
  β-Galactosidase activity: 1212
[4]; mutagen NQO, DGE final concentration 0.33 mM, without DGE 1437
  β-Galactosidase activity: 1038
[4]; mutagen NQO, DGE final concentration 0.5 mM, without DGE 1437
  β-Galactosidase activity: 926

## O=C1C=CC(CO)OC1O [κ-DGE, D-glycero-1,5-epoxy-1αβ,6-dihydroxy-cis-hex-3-en-2-one]
[1]
  activity of inducing heat shock protein: also exhibited similar activities of inducing heat shock protein
[2]
  antirheumatic activity (growth inhibition of rheumatoid cells): also exhibited similar activities
[3]
  activity of inhibiting melanogenesis: also exhibited similar activities
[4]
  antimutagenic activity: also exhibited similar activities
